From patent US9119881B2, “Method of synergistically enhancing the therapeutic efficacy and safety of medication through a combination therapy” (priority 2010, dated 2015)

Experiment: Intraperitoneal glucose tolerance test and fasting insulin in db/db mice
Format: in vivo
Experimental: Obese db/db mice were fed high-fat diets containing […] mg/kg diet rosiglitazone maleate (control, Ros^lo, and Ros^hi, respectively) with and without racemic ABA (100 mg/kg diet). On day 42 mice underwent an intraperitoneal glucose tolerance test (IPGTT) (A). Areas under the curve (B) were calculated for each treatment. On day 55 fasting insulin levels were measured for mice on each diet (C). Data are represented as mean±standard error.
Mice (n=40) were fed one of six experimental diets: a control high-fat diet (control), a high-fat diet containing low dose rosiglitazone maleate (Ros^lo, 10 mg/kg diet), or a high-fat diet containing a high dose of rosiglitazone maleate (Ros^hi, 70 mg/kg diet), each with or without all racemic ABA (100 mg/kg, Sigma Aldrich, St. Louis, Mo.) for 60 days. Mice were weighed and fasting (12 h) blood glucose levels were taken weekly. Blood glucose levels were assessed with an ACCU-CHEK® Glucometer (Roche, Indianapolis, Ind.). An intraperitoneal glucose tolerance test (IPGTT, 1 g glucose/kg body weight) was conducted on fasted mice (12 h) for 0, 30, 90, and 180 minute time points and insulin levels were measured on day 54. On day 60 mice were sacrificed by CO2 narcosis with secondary thoracotomy. Abdominal WAT, inguinal subcutaneous WAT, and liver were then excised and weighed. Abdominal and subcutaneous WAT were then digested and fractionated.

SMILES: CC1=CC(=O)CC(C)(C)C1(O)/C=C/C(C)=C\C(=O)O (racemic) [ABA, abscisic acid]
- glucose tolerance (IPGTT) (day 42, relative to the control diet): significantly improved
- fasting insulin levels (dietary ABA 100 mg/kg diet, P=0.04): significantly reduced
